Measured values from patent EP1048652A1, “AROMATIC COMPOUNDS HAVING CYCLIC AMINO OR SALTS THEREOF” (MOCHIDA PHARMACEUTICAL CO., LTD., priority 1997, dated 1999).

How the values were obtained:
Human FXa = biological target: T1, Human FXa (Homo sapiens, UniProt P00742); assay: Measuring human FXa inhibitory action (chromogenic substrate S-2222); assay type: biochemical; conditions: Human FXa 0.019 U/ml, S-2222 0.4 mM, Tris-HCl buffer (pH 7.5), 37 °C, absorbance at 405 nm
T1 construct: purchased Enzyme Research Laboratories, Inc
Method: The outstanding FXa inhibitory activity of the compounds of the present invention can be verified by the following tests. 1) Measurement of Enzyme Inhibitory Action a) Measuring human FXa inhibitory action In vitro FXa inhibitory activity is measured in accordance with the method of Kettner et al., J. Biol. Chem., 1990, 265, 18289-18297. Human FXa (Enzyme Research Laboratories, Inc., 0.019 U/ml) is mixed with a test compound diluted with dimethyl sulfoxide (DMSO) at various concentrations and a synthesis substrate S-2222 (Chromogenix AB, 0.4 mM) and incubated in a Tris-HCl buffer (pH 7.5) at 37 °C while the absorbance at 405 nm is measured continuously. To calculate the FXa inhibitory activity of the test cmpound, the initial reaction velocity is compared with the value for a control containing no test compound. The FXa inhibitory activity of a test compound is usually expressed as IC50. The compounds of the present invention were measured for their FXa inhibitory activity by the above-described method and they had potencies between 1 nM and 1µm in terms of IC50. […]

rat plasma = assay: Measuring extrinsic coagulation time (PT) in vitro in rat plasma; conditions: 37°C 3 minutes, thromboplastin reagent, concentration required to double the coagulation time
Method: The compounds synthesized in the Examples of the present invention had FXa inhibitory activities at least equal to that of the control compound. 2) Measurement of Anticoagulation Activity (in vitro) a) Measuring extrinsic coagulation time Thromboplastin time (PT) is measured in the presence of test compounds diluted at various concentrations. A test compound diluted with DMSO at various concentrations is mixed with rat plasma and incubated at 37°C for 3 minutes. Then, a thromboplastin reagent is added and the coagulation time is measured. The anticoagulation activity of the test compound is indicated in terms of the concentration required to double the coagulation time for the case where no test compound is added. […]

T1 sequence (P00742 235-488 limits assumed): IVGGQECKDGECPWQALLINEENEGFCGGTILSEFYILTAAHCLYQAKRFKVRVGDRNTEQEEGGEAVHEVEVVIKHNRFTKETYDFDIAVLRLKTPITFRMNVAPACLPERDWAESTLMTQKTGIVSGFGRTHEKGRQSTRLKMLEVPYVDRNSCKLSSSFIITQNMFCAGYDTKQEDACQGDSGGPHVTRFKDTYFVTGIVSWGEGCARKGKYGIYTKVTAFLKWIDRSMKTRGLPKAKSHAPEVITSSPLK
T1 sequence (P00742 41-179 partner limits assumed): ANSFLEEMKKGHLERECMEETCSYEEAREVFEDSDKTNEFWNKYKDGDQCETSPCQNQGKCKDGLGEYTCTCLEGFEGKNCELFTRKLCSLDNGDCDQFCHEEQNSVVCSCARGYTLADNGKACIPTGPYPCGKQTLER

## O=C(C1CCN(c2ccncc2)CC1)N1CCN(S(=O)(=O)/C=C/c2ccc(Cl)cc2)CC1 [Control, 1-((E)-4-chlorostyrylsulfonyl)-4-[1-(4-pyridyl)piperidin-4-ylcarbonyl]piperazine, reference compound]
Human FXa
  IC50: 150 nM

## CCOC(=O)C1CN(S(=O)(=O)c2ccc3cc(Cl)ccc3c2)CC(=O)N1CC1CCN(c2ccncc2)CC1 (stereo not drawn) [Example 39, 4-(6-chloronaphthalen-2-ylsulfonyl)-6-ethoxycarbonyl-1-[1-(4-pyridyl)piperidin-4-ylmethyl]piperazin-2-one]
Rat plasma
  PT Doubling Concentration: 2.8 µM
Human FXa
  IC50: 19 nM

## O=C(O)C1CN(S(=O)(=O)c2ccc3cc(Cl)ccc3c2)CC(=O)N1CC1CCN(c2ccncc2)CC1 (stereo not drawn) [Example 40, 6-carboxy-4-(6-chloronaphthalen-2-ylsulfonyl)-1-[1-(4-pyridyl)piperidin-4-ylmethyl]piperazin-2-one]
Rat plasma
  PT Doubling Concentration: 2.7 µM
Human FXa
  IC50: 7.4 nM

## NC(=O)C1CN(S(=O)(=O)c2ccc3cc(Cl)ccc3c2)CC(=O)N1CC1CCN(c2ccncc2)CC1 (stereo not drawn) [Example 46]
Human FXa
  IC50: 17 nM

## O=C1CN(S(=O)(=O)c2ccc3cc(Cl)ccc3c2)CC(C=NO)N1CC1CCN(c2ccncc2)CC1 (stereo not drawn) [Example 47, 6-aldoximyl-4-(6-chloronaphthalen-2-ylsulfonyl)-1-[1-(4-pyridyl)piperidin-4-ylmethyl]piperazin-2-one]
Human FXa
  IC50: 13 nM

## NCC1CN(S(=O)(=O)c2ccc3cc(Cl)ccc3c2)CC(=O)N1CC1CCN(c2ccncc2)CC1 (stereo not drawn) [Example 52, 6-aminomethyl-4-(6-chloronaphthalen-2-ylsulfonyl)-1-[1-(4-pyridyl)piperidin-4-ylmethyl]piperazin-2-one]
Human FXa
  IC50: 12 nM

## CN(C)CC1CN(S(=O)(=O)c2ccc3cc(Cl)ccc3c2)CC(=O)N1CC1CCN(c2ccncc2)CC1 (stereo not drawn) [Example 54, 4-(6-chloronaphthalen-2-ylsulfonyl)-6-dimethylaminomethyl-1-[1-(4-pyridyl)piperidin-4-ylmethyl]piperazin-2-one]
Human FXa
  IC50: 8.5 nM

## CC(=O)NCC1CN(S(=O)(=O)c2ccc3cc(Cl)ccc3c2)CC(=O)N1CC1CCN(c2ccncc2)CC1 (stereo not drawn) [Example 55, 6-acetamidomethyl-4-(6-chloronaphthalen-2-ylsulfonyl)-1-[1-(4-pyridyl)piperidin-4-ylmethyl]piperazin-2-one]
Human FXa
  IC50: 7.4 nM

## CCOC(=O)[C@H]1CN(S(=O)(=O)c2ccc3cc(Cl)ccc3c2)CC(=O)N1CC1CCN(c2ccncc2)CC1 [Example 60, (R)-4-(6-chloronaphthalen-2-ylsulfonyl)-6-ethoxycarbonyl-1-[1-(4-pyridyl)piperidin-4-ylmethyl]piperazin-2-one]
Human FXa
  IC50: 16 nM

## CCOC(=O)[C@@H]1CN(S(=O)(=O)c2ccc3cc(Cl)ccc3c2)CC(=O)N1CC1CCN(c2ccncc2)CC1 [Example 61, (S)-4-(6-chloronaphthalen-2-ylsulfonyl)-6-ethoxycarbonyl-1-[1-(4-pyridyl)piperidin-4-ylmethyl]piperazin-2-one]
Human FXa
  IC50: 70 nM
